Experimental findings from patent US20260174748A1, “AGENT FOR ALLEVIATING CLOZAPINE-INDUCED SIALORRHEA” (National University Corporation Chiba University, priority 2022, published 2026) are described below.

Holding throughout (assay type): in vivo, rat
Data set [1] deals with CIS model rats. Briefly: Experiment 4: acute phase effect of MK-801 and SA4503 on clozapine-induced sialorrhea. As to conditions: total of 3 times, 1 hour after final administration. Here is the method: (§1) Water and feed were limited from 1 hour before the saliva amount measurement.
(§2) As a method for measuring the amount of saliva, a small piece of cotton ball was placed in the mouth of the restrained rat and swabbed for 10 seconds (the saliva was absorbed into the cotton ball). This was repeated three times, and the mass change of the cotton ball was measured. The mass change was measured as the saliva amount collected over a total of 30 seconds.
The alleviating effect (acute phase effect) on clozapine-induced sialorrhea by a selective NMDA receptor antagonist MK-801 and a selective sigma-1 receptor agonist SA4503 were investigated. Experiment 4 was performed on CIS model rats of groups A to C as follows.
• Group A (control): Intraperitoneal administration of saline (1 mL/kg) for a total of 3 times • Group B: Intraperitoneal administration of MK-801 (0.1 mg/kg) for a total of 3 times • Group C: Intraperitoneal administration of SA4503 (1 mg/kg) for a total of 3 times
Note that the intraperitoneal administration was performed once in the morning and once in the afternoon on day 8 and once in the morning on day 9 for a total of 3 times. The saliva amount was measured 1 hour after the final administration.

Data set [2] has as its system CIS model rats. Briefly: Experiment 5: MK-801 in combination with NMDA receptor agonists D-serine or Glycine in CIS model rats. As to conditions: 3 times; for reduction in saliva amount by MK-801, compared to group B / resulting saliva amount relative to group A (control): 900 mg/kg oral, 1 hour later MK-801 0.1 mg/kg intraperitoneal; for reduction in saliva amount by MK-801, compared to group B: D-serine p<0.05, glycine p<0.01; for resulting saliva amount relative to group A (control): day 9. The method, then: as §1, §2
Experiment 5 was performed on CIS model rats of groups A to D as follows.
• Group A (control): The solvent (5 mL/kg) was orally administered, and then 1 hour later, saline (1 mL/kg) was intraperitoneally administered. This administration was performed for a total of 3 times. • Group B: The solvent (5 mL/kg) was orally administered, and then 1 hour later, MK-801 (0.1 mg/kg) was intraperitoneally administered. This administration was performed for a total of 3 times. • Group C: D-serine (900 mg/kg) was orally administered, and then 1 hour later, MK-801 (0.1 mg/kg) was intraperitoneally administered. This administration was performed for a total of 3 times. • Group D: Glycine (900 mg/kg) was orally administered, and then 1 hour later, MK-801 (0.1 mg/kg) was intraperitoneally administered. This administration was performed for a total of 3 times.
Note that the administration was performed once in the morning and once in the afternoon on day 8 and once in the morning on day 9 for a total of 3 times. The saliva amount was measured 1 hour after the final administration.

Data set [3] has as its system male Wister rats. Briefly: Creation of CIS model animals: saliva amount after oral clozapine. Conditions: for saliva amount: 7 days. Here is the method: CIS model animals were created with reference to previous studies (Ishikawa S, J. Pharmacol. Exp. Ther., 2020, November; 375(2): 376-384).
As experimental animals, 6 to 8-week-old male Wister rats (made by CLEA Japan, Inc.) were used. The animals were freely ingested and fed on water and normal feed except for the period of time from 1 hour before the saliva amount measurement described below to the measurement.
as §1, §2

In data set [4] the test system is CIS model rats. As to conditions: group C. The method, then: as §1, §2
The dose and period of administration of the NMDA receptor antagonist dextromethorphan (DXM) were investigated using the above-described CIS model animals (CIS model rats). Experiment 1 was performed on CIS model rats of groups A to C as follows.
The saliva amount was measured before drug administration on day 14 (24 hours after drug administration up to day 13).

Data set [5] deals with CIS model rats. Conditions: group B, DXM 30 mg/kg/day intraperitoneal on days 8 and 9 after clozapine 100 mg/kg/day days 1-7; p<0.01. The method, then:
as §1, §2
In the above Experiment 1, the saliva amount was measured 24 hours after DXM administration. […] The following studies were performed on the acute phase effect of dextromethorphan (DXM) using the above-described CIS model animals (CIS model rats).
Swabs were conducted on a daily basis to accustom the model animals with saliva measurements.
• Group A: Intraperitoneal administration of saline (1 mL/kg) once per day • Group B: Intraperitoneal administration of DXM (30 mg/kg/day) once per day
On Day 9, the saliva amount was measured 1 hour after DXM administration.

Data set [6] concerns CIS model rats. Conditions: for change in saliva amount from day 7 to day 9 (1 hour after administration): total of 3 times. Here is the method:
as §1, §2
The dose of dextromethorphan (DXM) was changed to examine the dose-dependency of clozapine-induced sialorrhea suppression effect.
The following studies were performed on the dose-dependency of the acute phase effect of DXM using the above-described CIS model animals (CIS model rats).
Note that swabs were performed on days 5 and 6 to accustom the model animals with the saliva measurement.
• Group A: Intraperitoneal administration of saline (1 mL/kg) for a total of 3 times • Group B: Intraperitoneal administration of saline (1 mL/kg) for a total of 3 times • Group C: Intraperitoneal administration of DXM (3 mg/kg) for a total of 3 times • Group D: Intraperitoneal administration of DXM (30 mg/kg) for a total of 3 times • Group E: Intraperitoneal administration of DXM (60 mg/kg) for a total of 3 times
The agent of the above dose was administered once in the morning and once in the afternoon on day 8 and once in the morning on day 9 for a total of 3 times. The saliva amount was measured 1 hour after the final administration.

SMILES strings stand for the structures. Like-named read-outs stand apart in the source and are kept apart here.

In the case of `C[C@]12N[C@H](Cc3ccccc31)c1ccccc12` [MK-801, dizocilpine (MK-801)], the “saliva amount on day 9 compared to group A (control)” value in data set [1] (group B, MK-801 0.1 mg/kg intraperitoneal, p<0.01) is given as “significantly reduced”; in data set [2] (group B, solvent oral then MK-801 0.1 mg/kg intraperitoneal, p<0.05), “significantly reduced”.

Consider `NCC(=O)O` [glycine, Glycine], for which, in data set [2], the “reduction in saliva amount by MK-801, compared to group B” value is given as “significantly antagonized” and the “resulting saliva amount relative to group A (control)” value is reported as “same level as that in group A”.

In the case of `COc1ccc(CCN2CCN(CCCc3ccccc3)CC2)cc1OC` [SA4503], the “saliva amount on day 9 compared to group A (control)” value in data set [1] (group C, SA4503 1 mg/kg intraperitoneal, p<0.05) is recorded as “significantly reduced”.

For `CN1CCN(C2=Nc3cc(Cl)ccc3Nc3ccccc32)CC1` [clozapine], the saliva amount result was “did not increase” in data set [3] (25 mg/kg/day orally once per day); “increased significantly” in data set [3] (50 mg/kg/day orally once per day, from day 3 of administration); “increased significantly” in data set [3] (100 mg/kg/day orally once per day, from day 3 of administration). Further, the “amount of saliva secretion” value in data set [3] (single oral dose of 25, 50 or 100 mg/kg/day, measured 4 times per day, every 6 hours from 1 hour after administration) is reported as “no increase in the amount of saliva secretion was observed”.

Consider `COc1ccc2c(c1)[C@]13CCCC[C@@H]1[C@H](C2)N(C)CC3` [dextromethorphan], for which the “change in saliva amount on day 14 based on the saliva amount on day 7” value in data set [4] (DXM 30 mg/kg/day intraperitoneal + clozapine, compared to groups A and B, p<0.01) was “significantly reduced”. Moreover, the “saliva amount on day 14” value in data set [4] (DXM 30 mg/kg/day intraperitoneal on days 8 to 13 in addition to clozapine 100 mg/kg/day, 24 hours after administration) is recorded as “reduction of saliva amount was observed”. Besides, the “saliva amount at 1 hour after administration on day 9” value in data set [5] is listed as “significantly reduced”. Besides, in data set [6] (DXM 60 mg/kg compared to DXM 3 mg/kg, intraperitoneal, 3 times, p<0.01), the “change in saliva amount from day 7 to day 9, group E compared to group C” value is recorded as “significantly reduced”. In data set [6] (DXM 3, 30, 60 mg/kg intraperitoneal), the “dose-dependency of clozapine-induced sialorrhea suppression effect” value is recorded as “dose-dependent”. Further, the “change in saliva amount from day 7 to day 9 (1 hour after administration)” value in data set [6] (group D, DXM 30 mg/kg intraperitoneal, p<0.05) is reported as “significantly reduced”; in data set [6] (group E, DXM 60 mg/kg intraperitoneal, p<0.001), “significantly reduced”.

Regarding `N[C@H](CO)C(=O)O` [D-serine], in data set [2], the “reduction in saliva amount by MK-801, compared to group B” value is reported as “significantly antagonized” and the “resulting saliva amount relative to group A (control)” value is “same level as that in group A”.
